Test results taken from patent US20250186541A1, “DLL3 TARGETING PEPTIDES AND CONSTRUCTS THEREOF” (MARIANA ONCOLOGY INC., priority 2023, published 2025).
pKd: −log10 of the molar value. Numbered stars: 1 amine (or outer) side, 2 acyl side, 3 side chain; on linkers, the order of the positions; unused ones are H or OH. Bridge positions count the residues as written; N and C are the ends. Square brackets hold non-standard residues; d marks the D form. Peptide text beside a SMILES is read from it. * marks the point of attachment. Ala(piperidin-4-yl) = O=C([C@H](CC1CCN([*:3])CC1)N[*:1])[*:2]; DOTA = O=C(O)CN1CCN(CC(=O)O)CCN(CC(=O)*)CCN(CC(=O)O)CC1; Bip = N[C@@H](Cc1ccc(-c2ccccc2)cc1)C(=O)O; 1Nal = N[C@@H](Cc1cccc2ccccc12)C(=O)O; 2Nal = N[C@@H](Cc1ccc2ccccc2c1)C(=O)O; Phe(2-Me) = Cc1ccccc1C[C@H](N)C(=O)O; NMeChg = CN[C@H](C(=O)O)C1CCCCC1; NMeF = CN[C@@H](Cc1ccccc1)C(=O)O; tBuAla = CC(C)(C)C[C@H](N)C(=O)O; 3Pal = N[C@@H](Cc1cccnc1)C(=O)O; NMeD = CN[C@@H](CC(=O)O)C(=O)O; Chg = N[C@H](C(=O)O)C1CCCCC1; Pen = CC(C)(S)[C@H](N)C(=O)O; Tle = CC(C)(C)[C@H](N)C(=O)O; αMeP = C[C@@]1(C(=O)O)CCCN1; dNMeA = CN[C@H](C)C(=O)O; Nva = CCC[C@H](N)C(=O)O; Ahx = NCCCCCC(=O)O

Target: T1, human DLL3 (Homo sapiens, UniProt Q9NYJ7)
T1 construct: biotin (biotinylated)
T1 sequence (Q9NYJ7 27-618): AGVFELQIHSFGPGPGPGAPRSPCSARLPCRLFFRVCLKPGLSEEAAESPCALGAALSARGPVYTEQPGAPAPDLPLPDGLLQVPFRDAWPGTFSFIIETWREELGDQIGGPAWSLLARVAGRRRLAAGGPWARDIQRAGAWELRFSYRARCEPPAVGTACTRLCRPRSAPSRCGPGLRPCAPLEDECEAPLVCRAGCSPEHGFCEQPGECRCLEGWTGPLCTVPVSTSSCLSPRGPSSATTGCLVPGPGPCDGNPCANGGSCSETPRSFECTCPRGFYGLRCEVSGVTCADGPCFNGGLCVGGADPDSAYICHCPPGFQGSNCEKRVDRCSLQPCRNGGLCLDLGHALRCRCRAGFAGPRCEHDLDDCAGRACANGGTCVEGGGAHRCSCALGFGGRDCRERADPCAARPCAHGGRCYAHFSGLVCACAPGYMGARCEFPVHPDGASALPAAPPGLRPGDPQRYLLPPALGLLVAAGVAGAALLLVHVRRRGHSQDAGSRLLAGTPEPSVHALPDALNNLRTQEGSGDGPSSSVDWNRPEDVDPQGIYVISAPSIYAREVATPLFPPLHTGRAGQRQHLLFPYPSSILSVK
Test: Affinity determination by Surface Plasmon Resonance (SPR), Biacore, 1:1 binding model
Conditions: biotinylated human DLL3 on streptavidin chip, 25° C.; NB = nonbinding
In short: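 SPR with biotinylated human DLL3 captured on a streptavidin chip, with a reference surface subtracted. Samples were injected at several concentrations at 100 μL/min in phosphate buffer with 137 mM NaCl, 2.7 mM KCl, 0.05% P20 and 2% DMSO. Kinetic and affinity constants came from a 1:1 binding fit.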

Row | Compound | pKd | SPR KD (nM)
1 | CC(=O)N[C@H](C)C(=O)N[C@@H](CO)C(=O)N(C)[C@@H](CC(=O)O)C(=O)N[C@H]1CSSC[C@@H](C(=O)N2CCC[C@@]2(C)C(=O)N[C@@H](Cc2ccccc2)C(=O)N[C@@H](CC(=O)O)C(=O)N[C@H](CCCCNC(=O)CN2CCN(CC(=O)O)CCN(CC(=O)O)CCN(CC(=O)O)CC2)C(N)=O)NC(=O)[C@H](CC(N)=O)NC(=O)[C@H](Cc2ccc3ccccc3c2)NC(=O)[C@H](CCC(N)=O)NC(=O)[C@H](CC(C)(C)C)NC(=O)[C@H](Cc2cccc3ccccc23)NC1=O [compound 170, Ac-(D-Ala)-S-(NMe-Asp)-C(3)-(1Nal)-(t-Bu-Ala)-Q-(2Nal)-N-C(3)-(aMe-P)-F-D-[D-Lys(DOTA)]-NH2] (Ac-[dA]S[NMeD]C[1Nal][tBuAla]Q[2Nal]NC[αMeP]FD[dK](DOTA)-NH2; disulfide 4-10) | 9.42 | 
2 | CC(=O)N[C@H](C)C(=O)N[C@H](CO)C(=O)N[C@@H](CC(=O)O)C(=O)N[C@H]1CSSC[C@@H](C(=O)N2CCC[C@@]2(C)C(=O)N[C@@H](Cc2ccccc2)C(=O)N[C@@H](CC(=O)O)C(=O)N[C@H](CCCCNC(=O)CN2CCN(CC(=O)O)CCN(CC(=O)O)CCN(CC(=O)O)CC2)C(N)=O)NC(=O)[C@H](CC(N)=O)NC(=O)[C@H](Cc2ccc3ccccc3c2)NC(=O)[C@H](Cc2cccnc2)NC(=O)[C@H](C2CCCCC2)NC(=O)[C@H](Cc2cccc3ccccc23)NC1=O [compound 127, Ac-(D-Ala)-(D-Ser)-D-C(3)-(1Nal)-(Chg)-(3Pya)-(2Nal)-N-C(3)-(aMe-P)-F-D-D-Lys(DOTA)-CONH2] (Ac-[dA][dS]DC[1Nal][Chg][3Pal][2Nal]NC[αMeP]FD[dK](DOTA)-NH2; disulfide 4-10) | 9.30 | 
3 | CC(=O)N[C@H](C)C(=O)N[C@@H](CO)C(=O)N[C@@H](CC(=O)O)C(=O)N[C@H]1Cc2cnnn2CC[C@@H](C(=O)N2CCC[C@@]2(C)C(=O)N[C@@H](Cc2ccccc2)C(=O)N[C@@H](CC(=O)O)C(=O)N[C@H](CCCCNC(=O)CN2CCN(CC(=O)O)CCN(CC(=O)O)CCN(CC(=O)O)CC2)C(N)=O)NC(=O)[C@H](CC(N)=O)NC(=O)[C@H](Cc2ccc3ccccc3c2)NC(=O)[C@H](CCC(N)=O)NC(=O)[C@H](CC(C)(C)C)NC(=O)[C@H](Cc2cccc3ccccc23)NC1=O [Cpd #164, Ac-(D-Ala)-S-D-[Pra(6)]-(1Nal)-(t-Bu-Ala)-Q-(2Nal)-N-[DabN3(6)]-(aMe-P)-F -D-D-Lys(DOTA)-CONH2] | < 7.52 | 
4 | CC(C)(C)C[C@@H]1NC(=O)[C@H](Cc2cccc3ccccc23)NC(=O)[C@@H](NC(=O)[C@H](CC(=O)O)NC(=O)[C@H](CO)NC(=O)CCCCCNC(=O)CN2CCN(CC(=O)O)CCN(CC(=O)O)CCN(CC(=O)O)CC2)CSSC[C@@H](C(=O)N2CCC[C@@]2(C)C(=O)N[C@@H](Cc2ccccc2)C(=O)N[C@@H](CC(=O)O)C(=O)O)NC(=O)[C@H](CC(N)=O)NC(=O)[C@H](Cc2ccc3ccccc3c2)NC(=O)[C@H](CCC(N)=O)NC1=O [compound 156, DOTA-Ahx-S-D-C(3)-(1Nal)-(t-Bu-Ala)-Q-(2Nal)-N-C(3)-(aMe-P)-F -D-COOH] ({DOTA-Ahx}-SDC[1Nal][tBuAla]Q[2Nal]NC[αMeP]FD-OH; disulfide 3-9) | 9.96 | 
5 | CC(C)C[C@@H]1NC(=O)[C@H](Cc2c[nH]c3ccccc23)NC(=O)[C@@H](NC(=O)[C@H](CC(=O)O)NC(=O)[C@H](CO)NC(=O)CCCCCNC(=O)CN2CCN(CC(=O)O)CCN(CC(=O)O)CCN(CC(=O)O)CC2)CSSC[C@@H](C(=O)N2CCC[C@H]2C(=O)N[C@@H](Cc2ccc3ccccc3c2)C(=O)N[C@@H](CC(=O)O)C(N)=O)NC(=O)[C@H](CC(N)=O)NC(=O)[C@H](Cc2c[nH]c3ccccc23)NC(=O)[C@H](CCC(N)=O)NC1=O [compound 40, DOTA-Ahx-S-D-C(3)-W-L-Q-W-N-C(3)-P-(2Nal)-D-CONH2] ({DOTA-Ahx}-SDCWLQWNCP[2Nal]D-NH2; disulfide 3-9) | < 6.52 | 
6 | CC(=O)N[C@@H](CO)C(=O)N[C@@H](CC(=O)O)C(=O)N[C@H]1CSSC[C@@H](C(=O)N2CCC[C@@]2(C)C(=O)N[C@@H](Cc2ccccc2)C(=O)N[C@@H](CC(=O)O)C(=O)N[C@H](CCCCNC(=O)CN2CCN(CC(=O)O)CCN(CC(=O)O)CCN(CC(=O)O)CC2)C(N)=O)NC(=O)[C@H](CC(N)=O)NC(=O)[C@H](Cc2ccc3ccccc3c2)NC(=O)[C@H](CC2CCNCC2)NC(=O)[C@H](C2CCCCC2)N(C)C(=O)[C@H](Cc2cccc3ccccc23)NC1=O [compound 179, Ac-S-D-C(3)-(1Nal)-(NMe-Chg)-[3-(4-piperidinyl)-Ala]-(2Nal)-N-C(3)-(aMe-P)-F -D-[D-Lys(DOTA)]-NH2] (Ac-SDC[1Nal][NMeChg][Ala(piperidin-4-yl)][2Nal]NC[αMeP]FD[dK](DOTA)-NH2; disulfide 3-9) | < 7.52 | 

Other lines, results leading:

Row | pKd | SPR KD (nM) | Compound
7 | 7.55 |  | CCC[C@H](NC(C)=O)C(=O)N[C@@H](CO)C(=O)N[C@@H](CC(=O)O)C(=O)N[C@H]1CSSC[C@@H](C(=O)N2CCC[C@H]2C(=O)N[C@@H](Cc2ccccc2)C(=O)N[C@@H](CC(=O)O)C(=O)N[C@H](CCCCNC(=O)CN2CCN(CC(=O)O)CCN(CC(=O)O)CCN(CC(=O)O)CC2)C(N)=O)NC(=O)[C@H](CC(N)=O)NC(=O)[C@H](Cc2c[nH]c3ccccc23)NC(=O)[C@H](CCC(N)=O)NC(=O)[C@H](CC(C)C)NC(=O)[C@H](Cc2c[nH]c3ccccc23)NC1=O [compound 32, Ac-Nva-S-D-C(3)-W-L-Q-W-N-C(3)-P-F-D-D-Lys(DOTA)-CONH2] (Ac-[Nva]SDCWLQWNCPFD[dK](DOTA)-NH2; disulfide 4-10)
8 | < 7.52 |  | CC(=O)N[C@H](C(=O)N[C@@H](CO)C(=O)N[C@@H](CC(=O)O)C(=O)N[C@H]1CSSC[C@@H](C(=O)N(C)[C@H](C)C(=O)N(C)[C@@H](Cc2ccccc2)C(=O)N[C@@H](CC(=O)O)C(=O)N[C@H](CCCCNC(=O)CN2CCN(CC(=O)O)CCN(CC(=O)O)CCN(CC(=O)O)CC2)C(N)=O)NC(=O)[C@H](CC(N)=O)NC(=O)[C@H](Cc2c[nH]c3ccccc23)NC(=O)[C@H](CCC(N)=O)NC(=O)[C@H](CC(C)C)NC(=O)[C@H](Cc2cccc3ccccc23)NC1=O)C1CCCCC1 [compound 110, Ac-(Chg)-S-D-C(3)-(1Nal)-L-Q-W-N-C(3)-(NMeD-Ala)-(NMe-F)-D-D-Lys(DOTA)-CONH2] (Ac-[Chg]SDC[1Nal]LQWNC[dNMeA][NMeF]D[dK](DOTA)-NH2; disulfide 4-10)
9 | < 7.52 |  | CC(=O)N[C@H](C(=O)N[C@@H](CO)C(=O)N[C@@H](CC(=O)O)C(=O)N[C@H]1CSSC(C)(C)[C@@H](C(=O)N2CCC[C@@]2(C)C(=O)N[C@@H](Cc2ccccc2)C(=O)N[C@@H](CC(=O)O)C(=O)N[C@H](CCCCNC(=O)CN2CCN(CC(=O)O)CCN(CC(=O)O)CCN(CC(=O)O)CC2)C(N)=O)NC(=O)[C@H](CC(N)=O)NC(=O)[C@H](Cc2c[nH]c3ccccc23)NC(=O)[C@H](CCC(N)=O)NC(=O)[C@H](CC(C)C)NC(=O)[C@H](Cc2cccc3ccccc23)NC1=O)C1CCCCC1 [compound 120, Ac-(Chg)-S-D-C(3)-(1Nal)-L-Q-W-N-Pen(3)-(aMe-P)-F-D-D-Lys(DOTA)-CONH2] (Ac-[Chg]SDC[1Nal]LQWN[Pen][αMeP]FD[dK](DOTA)-NH2; disulfide 4-10)
10 | 9.19 |  | CC(=O)N[C@H](C(=O)N[C@@H](CO)C(=O)N[C@@H](CC(=O)O)C(=O)N[C@H]1CSSC[C@@H](C(=O)N2CCC[C@@]2(C)C(=O)N[C@@H](Cc2ccccc2C)C(=O)N[C@@H](CC(=O)O)C(=O)N[C@H](CCCCNC(=O)CN2CCN(CC(=O)O)CCN(CC(=O)O)CCN(CC(=O)O)CC2)C(N)=O)NC(=O)[C@H](CC(N)=O)NC(=O)[C@H](Cc2c[nH]c3ccccc23)NC(=O)[C@H](CCC(N)=O)NC(=O)[C@H](CC(C)C)NC(=O)[C@H](Cc2cccc3ccccc23)NC1=O)C1CCCCC1 [compound 119, Ac-(Chg)-S-D-C(3)-(1Nal)-L-Q-W-N-C(3)-(aMe-P)-(2Me-Phe)-D-D-Lys(DOTA)-CONH2] (Ac-[Chg]SDC[1Nal]LQWNC[αMeP][Phe(2-Me)]D[dK](DOTA)-NH2; disulfide 4-10)
11 | < 6.52 |  | CSCC[C@H](NC(C)=O)C(=O)N[C@@H](CO)C(=O)N[C@@H](CC(=O)O)C(=O)N[C@H]1CSSC[C@@H](C(=O)N2CCC[C@H]2C(=O)N[C@@H](Cc2ccccc2)C(=O)N[C@@H](CC(=O)O)C(=O)N[C@H](CCCCNC(=O)CN2CCN(CC(=O)O)CCN(CC(=O)O)CCN(CC(=O)O)CC2)C(N)=O)NC(=O)[C@H](CC(N)=O)NC(=O)[C@H](Cc2ccc(-c3ccccc3)cc2)NC(=O)[C@H](CCC(N)=O)NC(=O)[C@H](CC(C)C)NC(=O)[C@H](Cc2c[nH]c3ccccc23)NC1=O [compound 60, Ac-M-S-D-C(3)-W-L-Q-(BIP)-N-C(3)-P-F-D-D-Lys(DOTA)-CONH2] (Ac-MSDCWLQ[Bip]NCPFD[dK](DOTA)-NH2; disulfide 4-10)
12 |  | slow kon | CC(=O)N[C@H](C(=O)N[C@@H](CO)C(=O)N[C@@H](CC(=O)O)C(=O)N[C@H]1CSSC[C@@H](C(=O)N2CCC[C@@]2(C)C(=O)N[C@@H](Cc2ccccc2)C(=O)N[C@@H](CC(=O)O)C(=O)N[C@H](CCCCNC(=O)CN2CCN(CC(=O)O)CCN(CC(=O)O)CCN(CC(=O)O)CC2)C(N)=O)NC(=O)[C@H](CC(N)=O)NC(=O)[C@H](Cc2ccc3ccccc3c2)NC(=O)[C@H](CCC(N)=O)NC(=O)[C@H](C(C)(C)C)NC(=O)[C@H](Cc2cccc3ccccc23)NC1=O)C1CCCCC1 [compound 129, Ac-(Chg)-S-D-C(3)-(1Nal)-(TBG)-Q-(2Nal)-N-C(3)-(aMe-P)-F-D-D-Lys(DOTA)-CONH2] (Ac-[Chg]SDC[1Nal][Tle]Q[2Nal]NC[αMeP]FD[dK](DOTA)-NH2; disulfide 4-10)
